Experimental data: paper PMC6212493, “Development and evaluation of a novel series of Nitroxoline-derived BET inhibitors with antitumor activity in renal cell carcinoma” (Oncogenesis, 2018)
“Also recorded” adds a separate entry of the source.

What was measured:
[1] = tested on: non-BET BRD-containing proteins (SMACAR, BPTF, PCAF) and epigenetic enzymes; test: In vitro selective assay at 3 μM, non-BET bromodomain proteins and epi-enzymes; type: biochemical
Protocol: (§1) First, we compared the inhibitory activity of BDF-1253 to displace BRD4-BD1 or BRD4-BD2 domain from acetylated H4 peptide using ALPHA assay. […] An in vitro selective assay was also conducted to examine the effect of BDF-1253 at 3 μM on the other BET proteins, other BRD proteins out of BET family (SMACAR, BPTF, PCAF) as well as several epigenetic enzymes.
(§2) Determination of inhibition against BET family members, bromodomain proteins out of the BET family as well as several epi-enzymes by BDF-1253 at 3 μM.

[2] = tested on: c-Myc, Bcl-2, and CDK6 mRNA expression; test: Real-time PCR of BET downstream genes in RCC cells; type: cell-based; conditions: relative to DMSO control, normalized to β2-microglobulin
Protocol: Trizol reagent (Vazyme) was used to extract total RNA of ccRCC tumor samples or cells following manufacturer’s instructions. Synthesis of complementary DNA (cDNA) was done using the HiScript® II RT SuperMix (Vazyme). StepOnePlus (Life Technologies) apparatus was applied to carry out quantitative real-time PCR (qPCR). Gene-specific data were normalized to β2-microglobulin and are calculated as relative expression compared to DMSO or control group using the ΔΔCT method.

786-O cells = test: Alamar Blue viability assay, 786-O; type: cell-based
Protocol: (§3) RCC cells 786-O, 769-P, A498, and ACHN were purchased from ATCC. All the cells were authenticated by STR profiling at Genesky Biopharma Technology and tested for Mycoplasma contamination. […] For the viability assay, cells were plated on 96-well plates at the density of 0.5–1 × 10^3/well. After cell attachment, various concentrations of compounds and DMSO were added, the plates were incubated for 7 days. After the addition of 10 μL Alamar Blue and incubation for 3 h at 37 °C, fluorescent signals were measured with a PE Envision reader, at the wavelength of 544 nm for excitation and 590 nm for emission. Finally, the percentages of viability were calculated by normalizing against the control.

Caki cells = test: Alamar Blue viability assay, Caki; type: cell-based; conditions: 168 h, treatment for 7 days, read-out: IC50, cell viability
HUVEC normal cell line = test: Viability of normal cells, HUVEC; type: cell-based; conditions: at similar concentrations as RCC cells
A498 cells = test: Alamar Blue viability assay, A498; type: cell-based; conditions: Homo sapiens, 168 h; A498, treatment for 7 days; read-out: IC50, cell viability
Protocol: as §3

[3] = tested on: c-Myc, Bcl-2, Bax, cleaved-PARP, cleaved-Caspase3 protein abundance; test: Western blot of BET downstream and apoptosis proteins in RCC cells; type: cell-based; conditions: immunoblot
Protocol: Protein lysates from tissue samples were obtained using RIPA buffer supplemented with protease and phosphatase inhibitors. For the cellular samples, cells were collected following treatment with DMSO and compounds. Western blot was performed as previously described.[25] The primary antibodies were BRD2 (A302-583A, Bethyl), BRD3 (A302-368A, Bethyl), BRD4 (A301-985A, Bethyl), MYC (sc-40, Santa Cruz Biotechnology), BCL2 (ab7973, Abcam), BAX (ab32503, Abcam), cleaved PARP (Cell Signaling, #5625). The secondary antibodies were anti-rabbit IgG (Jackson, 111-035-003) or anti-mouse IgG (Jackson). HRP substrate (GE Healthcare) was used for the detection of chemical luminescence, and FUJIFILM LAS-4000 was used for image acquisition.

ACHN cells = test: Alamar Blue viability assay, ACHN; type: cell-based; conditions: Homo sapiens, 168 h, treatment for 7 days, read-out: IC50, cell viability
Protocol: as §3

BRD4-BD2 = BRD4-BD2 (Homo sapiens, UniProt O60885); test: ALPHA assay, displacement of BRD4-BD2 from acetylated H4 peptide; type: binding
Protocol: as §1
(§4) Amplified Luminescent Proximity Homogeneous Assay (ALPHA) screen assay was used to determine the IC50 of compounds for competitive displacement of BRD4_BD1 from the acetylated H4 peptide. As previously described, 2.5 μL compounds and 2.5 μL proteins were added into each well of 384-well plates and incubated at room temperature for 15 min. To start the reaction, 5 μL substrate peptide was added and incubated at room temperature for 5 min. Subsequently, 5 µL nickel-chelate acceptor beads (PerkinElmer) and 5 µL streptavidin-conjugate donor beads (PerkinElmer) were added. After 60 min incubation at room temperature, data were collected by EnVision (PerkinElmer) and analyzed using GraphPad Prism 5.0.
IC50 determination of BDF-1253 against BRD4-BD1 and BRD4-BD2 using Alpha Screen method.

BRD4-BD1 = molecular target: T1, BRD4-BD1 (Homo sapiens, UniProt O60885); test: ALPHA screen assay, displacement of BRD4-BD1 from acetylated H4 peptide; type: binding
T1 construct: with the first bromodomain of BRD4 (BRD4-BD1) were solved; 6xHis (N); made in house; host or cells: Escherichia coli BL21 (DE3)
Protocol: as §4

786-O xenograft tumor = test: RCC xenograft mice model (786-O); type: in vivo, nude mice; conditions: 50 mg/kg intraperitoneally daily
Protocol: All animal experiments were approved by IACUC (Institutional Animal Care and Use Committee) of Shanghai Institute of Materia Medica. Four to six-week-old female nude mice purchased from Silaike Laboratory Animal Ltd. were subcutaneously inoculated with 5 × 10^6 786-O cells in 100 μL PBS. All nude mice were raised under pathogen-free conditions to achieve tumor growth. Sample size of each group (n = 7) was chosen following the instruction by http://www.biomath.info. As long as the tumor sizes reached palpable stage, the mice were randomly divided into two groups (n = 7/group). One group is for compound BDF-1253 treatment trials and the other group is the control group. […] These mice were treated intraperitoneally with either diluted compound BDF-1253 of 50 mg/kg or vehicle on a daily basis. Tumor volume was evaluated every 3 days using Vernier calipers and calculated with the equation: length × width^2 × 0.5. Animals were killed when their tumors reached 2 cm^3.

RCTEC normal cell line = test: Viability of normal cells, RCTEC; type: cell-based; conditions: at similar concentrations as RCC cells
Protocol: as §3

BET family proteins = test: In vitro selective assay at 3 μM, BET proteins; type: binding
Protocol: as §1, §2

Compound	effect on non-BET BRD-containing proteins or other epigenetic enzymes [1]	mRNA expression levels of c-Myc, Bcl-2, and CDK6 (BET target gene transcription) [2]	IC50 (786-O cells; Homo sapiens, 786-0, 168 h, 786-O, treatment for 7 days, read-out: IC50, cell viability) [nM]	effect on RCC cell proliferation (786-O cells; RCC 786-o cells, in words)	IC50 (Caki cells) [µM]	inhibition of normal cell viability (HUVEC normal cell line)	IC50 (A498 cells) [nM]	PRAP and Caspase3 cleavage and expression of pro-apoptotic protein Bax [3]	protein abundance of c-Myc, Bcl-2 (BRD4 downstream effectors) [3]	IC50 (ACHN cells) [nM]	selectivity for BRD4-BD1 or BRD4-BD2 domain (BRD4-BD2)	IC50 (BRD4-BD1) [nM]	c-Myc expression in tumors (immunoblotting) (786-O xenograft tumor)	tumor size (786-O xenograft tumor; 21 days, 786-O xenograft)	body weight / toxicity (786-O xenograft tumor; during dosing)	inhibition of normal cell viability (RCTEC normal cell line)	effect on BET family proteins (BET family proteins)
CC(=O)Nc1cc(Cn2ccnc2)c2cccc(O)c2n1 [BDF-1253]	minimal effects	inhibited expression; also recorded: dose-dependently decreased	1510	inhibited the proliferation	3.57	little inhibition	1390	increased PRAP and Caspase3 cleavage and elevated expression of pro-apoptotic protein Bax	reduced after the treatment, in a dose-dependent manner	2070	no obvious selectivity	287	reduced	remarkable reduction in tumor size	no obvious loss of body weight or toxicity	little inhibition	selectively inhibited BET family proteins
O=[N+]([O-])c1ccc(O)c2ncccc12 [Nitroxoline]	–	–	–	–	–	–	–	–	–	–	–	980	–	–	–	–	–
